This is an account of results in US4925835A, “Aziridinyl putrescine containing compositions and their uses in treating prostate cancer” (priority 1987, dated 1990).

Each structure is given as a SMILES string.

The test system of one series is normal rat prostate. Nature of the series: In vivo antiprostatic activity, prostate wet weight. The note with it: Copenhagen rats. The method, then:
1-(4-aminobutyl) aziridine, difluoromethylornithine, and a combination of 1-(4-aminobutyl) aziridine and difluoromethylornithine were tested in vivo for antiprostatic activity using Copenhagen rats. The normal rat prostate is often used as a model or control for drugs which are suspected of having antiprostatic cancer activity. Sloan, et al., Cancer Chemother. Rep. 59: 185-194 (1975). 1-(4-aminobutyl) aziridine, difluoromethylornithine, and a combination of 1-(4-aminobutyl) aziridine and difluoromethylornithine were administered to twenty-eight (28) Copenhagen rats for 14 days. 1-(4-aminobutyl) aziridine was administered by an infusion mini-pump implanted intraperitoneally.
Difluoromethylornithine was administered orally. The 1-(4-aminobutyl) aziridine was delivered at a rate of 2 mg/kg/day. A similar amount of difluoromethylornithine was administered orally on a daily basis. Before loading the infusion pump, the pH of 1-(4-aminobutyl) aziridine was adjusted to 7.5 with hydrochloric acid. The pump rate was 0.5 u./hr.
The prostates of the twenty-eight (28) subjects were removed, freed of fat and weighed to the nearest milligram.

The test system of the next series is PC-3 cells. Put plainly: Polyamine assays: intracellular polyamine levels by HPLC. In kind it is cell-based, human. How it is done:
One h later the medium was aspirated and the cells were rinsed with cold HBSS. Three plates were treated with dilute trypsin to release the cells from the plate and provide a single cell suspension. The viability of the cells and the number of cells per plate were determined by trypan blue exclusion and counting with the aid of a hemocytometer. […] The other three plates were extracted with 0.4N perchloric acid and the polyamines were measured by fluorescence following postcolumn derivatization with o-phthalaldehyde following separation by the reverse phase ion-pair high performance liquid chromatography procedure of Wagner et al., J. Chomatogr., 227: 349-368, 1982.
In Table 2 are listed the values for the triplicate assays of the concentrations of polyamine observed in nontreated cells, cells treated with 1-(4-aminobutyl) aziridine for 1 h, cells pretreated for 48 h with 1 mM difluoromethylornithine and then incubated in drug free medium for 1 h, or cells pretreated for 48 h with difluoromethylornithine, rinsed free of difluoromethylornithine, and then incubated with 25 μM 1-(4-aminobutyl)aziridine for 1 h. All groups had cell viabilities greater than 95% and cell numbers were 4.9±0.6 (SE), 4.9±0.7, 4.8±0.4, and 4.6±0.4×10^6 cells for the control, 1-(4-aminobutyl) aziridine, difluoromethylornithine, and difluoromethylornithine+1-(4-aminobutyl) aziridine groups, respectively. The apparent amount of 1-(4-aminobutyl) aziridine in the difluoromethylornithine-treated cells was 3.7 times that of the 1-(4-aminobutyl) aziridine-only-treated cells. No N^8 -acetylspermidine, acetylputrescine, or cadaverine was detected in any group. A peak was detected at a wavelength of 254 nm in the difluoromethylornithine treatment groups that corresponds to the retention time of decarboxylated S-adenosylmethionine.
^a PC-3 cells were incubated with or without 1 mM DFMO for 48 h. Cell
were then rinsed free of DFMO and incubated for 1 h with 25 μM AZP. Th
cells were washed free of AZP by three rinses of HBSS. With one set of
triplicate plates, the cells were resuspended and counted by hemocytomete
and viability was determined by trypan dye exclusion (viability > 95%).
Another set triplicate plates was extracted with icecold perchloric acid
and filtered and the polyamine concentrations were determined by HPLC.
^b Mean ± SE for a triplicate assay. Histamine is included as a […]

Series [1] can be described thus: Alkylating activity with 4-(p-nitrobenzyl)pyridine. The note with it: 100 nmol in 5.0 ml, 0.1M acetate, PH 4.5, 37° C., 2 h. How it is done: The preparation of 1-(4-aminobutyl) aziridine from 1,4-diaminobutane (putrescine) was performed by the three-step synthetic method reported by Piper et al. supra.
1-(4-aminobutyl) aziridine (100 nmol) produced an absorbance increase of 0.7 with 4-(p-nitrobenzyl)pyridine in 5.0 ml when incubated in 0.1M acetate, PH 4.5, at 37° C. for 2 h. […] The retention times were: putrescine, 19.6 min; 1-(4-aminobutyl) aziridine, 21.1 min; and histamine, 21.8 min.

Where [2] appears, read: 14 days, AZP 2 mg/kg/day by intraperitoneal infusion mini-pump, DFMO similar amount orally.
Setting [3] is: PC-3, ±1 mM DFMO 48 h, then ±25 μM AZP 1 h, mean ± SE.

For `NCCCCN1CC1` [AZP, 1-(4-aminobutyl) aziridine], the “Reduction of the size of the normal ventral prostate” value in the series with normal rat prostate (2 mg/kg/day over a fourteen day period) was “approximately 67%”. For the same compound, in the series with normal rat prostate (2 mg/kg/day, 14 days), the “Animal toxicity (weight or fur loss, poor posture)” value is “no evidence of animal toxicity” and the “Organ toxicity on examination at sacrifice (liver, spleen, intestine, kidneys)” value is listed as “no other organs, e.g., liver, spleen, intestine, kidneys, demonstrated any evidence of toxicity”. For the same compound, the “Effect on prostate size (in words)” value in the series with normal rat prostate (14 days) was “significantly decreased the size of the normal ventral prostates”. In addition, in the series with normal rat prostate (setting [2]), the “Dorsal Lateral Prostate, milligram wet weight (SEM)” value is 474 ± 39 milligram and the “Ventral Prostate, milligram wet weight (SEM)” value is 378 ± 30 milligram. In addition, in the series on PC-3 cells (25 μM AZP 1 h, 1 mM DFMO 48 h pretreatment), the “Apparent amount of AZP in DFMO-treated cells relative to AZP-only-treated cells” value is on record as 3.7 times. Also, the “Polyamine levels: AZP” value with PC-3 cells (PC-3, ±1 mM DFMO 48 h, then 25 μM AZP 1 h, mean ± SE) is on record as 115 ± 32 pmol/10^6. The “Cell numbers at end of treatment” value in the series on PC-3 cells (PC-3, ±1 mM DFMO 48 h, then ±25 μM AZP 1 h, SE) is reported as 4.9±0.7 ×10^6 cells. In the series on PC-3 cells (setting [3]), the “Polyamine levels: Hist (histamine, nonpolyamine control)” value amounted to 86 ± 25 pmol/10^6; the “Polyamine levels: NaSpm (N-acetylspermine)” value is on record as 125 ± 28 pmol/10^6; the “Polyamine levels: PUT (putrescine)” value worked out at 2520 ± 170 pmol/10^6; the “Polyamine levels: Spd (spermidine)” value stood at 2884 ± 100 pmol/10^6. For the same compound, in the series with PC-3 cells (setting [3]), the “Polyamine levels: Spm (spermine)” value is 3604 ± 323 pmol/10^6. Besides, in series [1], the “Absorbance increase with 4-(p-nitrobenzyl)pyridine (alkylating activity)” value turned out to be 0.7.
